Laboratory results as given in US12577241B2, “Polycyclic pyridopyrazine derivative” (Shionogi & Co., Ltd., priority 2019, dated 2026).

Experiments:
HIV [1] = test: Test Example 1: Anti-HIV activity (MT-4 cells, CellTiter-Glo); type: cell-based; conditions: Human immunodeficiency virus 1, MT4, 96 h, 4 days culture, CellTiter-Glo luminescence, read-out: EC50 (50% HIV inhibitory concentration)
Description: Test Example 1: Anti-HIV Activity
Serial dilutions of a test sample were prepared in a 384-well microplate by a dispensing machine. 6.25×10^4 cells/mL of a MT-4 cell suspension was dispensed at 20 μL/well to the plate containing the test sample. Then, an HIV virus solution was dispensed at 20 μL/well. The plate was mixed with a plate mixer and cultured for 4 days in a CO2 incubator. On day 4 of culture, CellTiter-Glo or CellTiter-Glo 2.0 was dispensed at 20 μL/well. The plate was reacted while being stirred with the plate mixer at room temperature for about 15 minutes. The amount of luminescence of the plate after the reaction was measured with a microplate reader. A 50% HIV inhibitory concentration (EC50) was determined from a concentration-dependent curve using the following 4 parameter logistic curve fitting model. y=A+((B−A)/(1+((C/x)^D))) • A=minimum rate of inhibition (negative control, 0%) • B=maximum rate of inhibition (positive control, 100%) • C=compound concentration at an inflection point • D=slope coefficient • x=compound concentration • y=rate of inhibition (%) (Results)

[2] = Test Example 7: Metabolism stability test; type: in vitro ADME; conditions: human liver microsomes 0.5 mg protein/mL, 30 minutes, 37° C., NADPH, compound concentration 0.5 μmol/L
Description: Test Example 7: Metabolism Stability Test Commercially available pooled human liver microsomes were reacted with the compound of the present invention for a given time. A residual rate was calculated by the comparison between the reacted sample and an unreacted sample to evaluate the degree at which the compound of the present invention was metabolized in the liver. The compound was reacted at 37° C. for 0 minutes or 30 minutes in the presence of 1 mmol/L NADPH in 0.2 mL of a buffer solution (50 mmol/L Tris-HCl pH 7.4, 150 mmol/L potassium chloride, and 10 mmol/L magnesium chloride) containing 0.5 mg protein/mL of the human liver microsomes (oxidative reaction). After the reaction, 50 μL of the reaction solution was added to 100 μL of a solution of methanol/acetonitrile=1/1 (v/v), and the mixture was mixed and centrifuged at 3000 rpm for 15 minutes. The compound of the present invention in the centrifugation supernatant was quantified by LC/MS/MS or solid-phase extraction (SPE)/MS. The amount of the compound of the present invention remaining after the reaction was calculated with the amount of the compound at 0 minutes of the reaction defined as 100%.

[3] = test system: HIV mutant strains (E92Q/E138T/G140S/Q148H); test: Test Example 2: Resistance evaluation test (HeLa-CD4 cells, wild and mutant strain); type: cell-based; conditions: 3 days
Description: Test Example 2: Resistance Evaluation Test
Serial dilutions of a test sample were prepared in a 96-well microplate (50 μL/well). 2.5×10^5 cells/mL of a HeLa-CD4 cell suspension was dispensed at 100 μL/well to the plate containing the test sample. Then, an HIV virus solution (wild strain and mutant strain) was dispensed at 50 μL/well. The plate was mixed with a plate mixer and cultured for 3 days in a CO2 incubator. The culture supernatant in each well was removed by suction. A cell lysis buffer was dispensed at 100 μL/well, and the plate was frozen in a freezer (−80° C.). The plate frozen in a freezer was thawed at room temperature, then mixed with a plate mixer, and centrifuged at 1,200 rpm for 5 minutes. Beta-Glo Reagent was dispensed at 20 μL/well to a 384-well microplate, 2 μL of the supernatant of each well (diluted as necessary) of the plate after centrifugation was added, and then the mixture was reacted at room temperature for about 30 minutes. The amount of luminescence of the plate after the reaction was measured with a microplate reader. A 50% HIV inhibitory concentration (EC50) was determined from a concentration-dependent curve using the following 4 parameter logistic curve fitting model. y=A+((B−A)/(1+((C/x)^D))) • A=minimum rate of inhibition (negative control, 0%) • B=maximum rate of inhibition (positive control, 100%) • C=compound concentration at an inflection point • D=slope coefficient • x=compound concentration • y=rate of inhibition (%)
The degree of resistance (fold change (FC)) of each mutant strain was calculated according to the following expression. • FC=EC50 of the mutant strain/EC50 of the wild strain (Results)

[4] = Test Example 6: Clearance evaluation test; type: in vivo, Rats; conditions: plasma, 1 umol/kg, rat, intravenous 1 μmol/kg; for half-life: read-out: Elimination half-life (t½) (converted); for clearance: read-out: Total body clearance (CLtot)
Excerpt: Test Example 6: Clearance Evaluation Test Experimental Material and Method (1) Animals used: Rats were used. (2) Breeding conditions: The rats were allowed to freely take solid food and sterilized tap water. (3) Dose and grouping setting: A predetermined dose was intravenously administered. Groups were set as follows: Intravenous administration: 1 μmol/kg (n=2) (4) Preparation of dosing solution: The test sample was solubilized using a solvent of dimethyl sulfoxide/propylene glycol=1/1 and administered. (5) Administration method: The test sample was administered to the tail vein through a syringe with an injection needle. (6) Evaluation item: Blood was collected over time, and the concentration of the compound of the present invention in plasma was measured using LC/MS/MS. (7) Statistical analysis: Total body clearance (CLtot) and elimination half-life (t½) were calculated as to change in the concentration of the compound of the present invention in plasma by the moment analysis method.

HIV [5] = test: Test Example 14: Anti-HIV activity evaluation test in presence of human serum protein; type: cell-based; conditions: MT-4 cells; PS=4×(EC50 with 25% human serum protein/EC50 without); 100% extrapolated value
Description: Test Example 14: Anti-HIV Activity Evaluation Test in Presence of Human Serum Protein
Serial dilutions of a test sample were prepared in a 384-well microplate by a dispensing machine. A human serum protein solution (human serum protein concentration 50%) was dispensed at 20 μL/well to a 384-well microplate containing the test sample and left to stand still at room temperature for 1 hour. A culturing solution was dispensed at 20 μL/well to a plate for the absence of serum. 1 mL of 3.0×10^6 cells/mL of MT-4 cells and a 300 μL HIV virus solution were mixed and reacted at 37° C. for 1 hour. After the reaction, the cell suspension was centrifuged to discard the supernatant, the infected cells were dispersed in 40 mL of a culturing solution and the resultant solution was dispensed at 20 μL/well to a 384-well microplate containing the test sample and the human serum protein (human serum protein final concentration: 25%). The plate was mixed with a plate mixer and cultured for 4 days in a CO2 incubator. On day 4 of culture, CellTiter-Glo or CellTiter-Glo 2.0 was dispensed at 20 μL/well. The plate was reacted while being stirred with the plate mixer at room temperature for about 15 minutes. The amount of luminescence of the plate after the reaction was measured with a microplate reader. […]
The potency shift (PS) was calculated on the basis of the following calculation formula. […]

Nav 1.5 channel = molecular target: T1, Nav 1.5 channel (Homo sapiens, UniProt Q14524); test: Test Example 13: Nav test; type: cell-based; conditions: HEK cells expressing Nav 1.5 channel, INa, whole cell patch clamp, relative to vehicle
T1 construct: expressed in transfected cells; host or cells: HEK cells
Excerpt: Test Example 13: Nav Test
For the purpose of assessing proarrhythmic risk of the compound of the present invention, effects of the compound of the present invention on Na^+ current (INa), which plays an important role in the myocardial depolarization process, was studied using HEK cells expressing Voltage gated sodium channel (Nav 1.5 channel) encoded by SCNSA gene.
After a cell was retained at a membrane potential of −100 mV by the whole cell patch clamp method using an automated patch clamp system (QPatch; Sophion Bioscience A/S), INa induced by depolarization pulse stimulation at −10 mV for 20 milliseconds was recorded. An extracellular fluid (NaCl: 145 mmol/L, KCl 4 mmol/L, CaCl2: 2 mmol/L, MgCl2: 1 mmol/L, glucose: 10 mmol/L, HEPES (4-(2-hydroxyethyl)-1-piperazineethanesulfonic acid): 10 mmol/L, tetraethylammonium hydroxide (TEA): 10 mmol/L, pH=7.4) adjusted to 0.3% with dimethyl sulfoxide was used as a vehicle to apply the vehicle and the extracellular fluid containing the compound of the present invention dissolved at a concentration of interest to the cells under conditions of room temperature for 5 minutes or longer. From the obtained INa, the absolute value of the maximum peak current based on the current value at the membrane potential where the cells have been kept was measured using analytical software (QPatch Assay software; Sophion Bioscience A/S). The ratio of the maximum peak current at the time of applying the compound of the present invention to the maximum peak current at the time of applying the vehicle and the electric charge amount at the time of applying the compound of the present invention with respect to the electric charge amount at the time of applying vehicle were calculated, and the influence of the compound of the present invention on INa was evaluated.

CYP3A4 = molecular target: T2, CYP3A4 (Homo sapiens, UniProt P08684); test: Test Example 4: CYP3A4 (MDZ) MBI test; type: in vitro ADME; conditions: pooled human liver microsomes, midazolam 1-hydroxylation, IC 0 min preincubation/IC 30-min preincubation
T2 construct: pooled human liver microsomes, 0.5 mg/mL for the prereaction; from tissue; host or cells: pooled human liver microsomes
Description: Test Example 4: CYP3A4 (MDZ) MBI Test
This test as to the inhibition of CYP3A4 by the compound of the present invention is to evaluate mechanism based inhibition (MBI) ability from enhancement in inhibitory effect, caused by a metabolism reaction, of the compound of the present invention. CYP3A4 inhibition was evaluated using pooled human liver microsomes by 1-hydroxylation reaction of midazolam (MDZ) as a marker reaction. […]
The pooled human liver microsomes and a solution of the compound of the present invention were added according to the recipe of the prereaction described above into a K-Pi buffer solution (pH 7.4) as a prereaction solution in a 96-well plate. […] After centrifuged at 3000 rpm for 15 minutes, 1-hydroxymidazolam in the supernatant was quantified by LC/MS/MS.
Only a solvent DMSO used for dissolving the compound was added to the reaction solution instead of the compound of the present invention, and the mixture was used as a control (100%). Remaining activity (%) at the time of the addition of the compound of the present invention at each concentration was calculated, and IC was calculated by inverse estimation based on a logistic model using the concentrations and the rates of suppression. A shifted IC value is calculated from IC from the 0 min preincubation/IC from the 30-min preincubation. […]

T1 sequence (Q14524 whole entry): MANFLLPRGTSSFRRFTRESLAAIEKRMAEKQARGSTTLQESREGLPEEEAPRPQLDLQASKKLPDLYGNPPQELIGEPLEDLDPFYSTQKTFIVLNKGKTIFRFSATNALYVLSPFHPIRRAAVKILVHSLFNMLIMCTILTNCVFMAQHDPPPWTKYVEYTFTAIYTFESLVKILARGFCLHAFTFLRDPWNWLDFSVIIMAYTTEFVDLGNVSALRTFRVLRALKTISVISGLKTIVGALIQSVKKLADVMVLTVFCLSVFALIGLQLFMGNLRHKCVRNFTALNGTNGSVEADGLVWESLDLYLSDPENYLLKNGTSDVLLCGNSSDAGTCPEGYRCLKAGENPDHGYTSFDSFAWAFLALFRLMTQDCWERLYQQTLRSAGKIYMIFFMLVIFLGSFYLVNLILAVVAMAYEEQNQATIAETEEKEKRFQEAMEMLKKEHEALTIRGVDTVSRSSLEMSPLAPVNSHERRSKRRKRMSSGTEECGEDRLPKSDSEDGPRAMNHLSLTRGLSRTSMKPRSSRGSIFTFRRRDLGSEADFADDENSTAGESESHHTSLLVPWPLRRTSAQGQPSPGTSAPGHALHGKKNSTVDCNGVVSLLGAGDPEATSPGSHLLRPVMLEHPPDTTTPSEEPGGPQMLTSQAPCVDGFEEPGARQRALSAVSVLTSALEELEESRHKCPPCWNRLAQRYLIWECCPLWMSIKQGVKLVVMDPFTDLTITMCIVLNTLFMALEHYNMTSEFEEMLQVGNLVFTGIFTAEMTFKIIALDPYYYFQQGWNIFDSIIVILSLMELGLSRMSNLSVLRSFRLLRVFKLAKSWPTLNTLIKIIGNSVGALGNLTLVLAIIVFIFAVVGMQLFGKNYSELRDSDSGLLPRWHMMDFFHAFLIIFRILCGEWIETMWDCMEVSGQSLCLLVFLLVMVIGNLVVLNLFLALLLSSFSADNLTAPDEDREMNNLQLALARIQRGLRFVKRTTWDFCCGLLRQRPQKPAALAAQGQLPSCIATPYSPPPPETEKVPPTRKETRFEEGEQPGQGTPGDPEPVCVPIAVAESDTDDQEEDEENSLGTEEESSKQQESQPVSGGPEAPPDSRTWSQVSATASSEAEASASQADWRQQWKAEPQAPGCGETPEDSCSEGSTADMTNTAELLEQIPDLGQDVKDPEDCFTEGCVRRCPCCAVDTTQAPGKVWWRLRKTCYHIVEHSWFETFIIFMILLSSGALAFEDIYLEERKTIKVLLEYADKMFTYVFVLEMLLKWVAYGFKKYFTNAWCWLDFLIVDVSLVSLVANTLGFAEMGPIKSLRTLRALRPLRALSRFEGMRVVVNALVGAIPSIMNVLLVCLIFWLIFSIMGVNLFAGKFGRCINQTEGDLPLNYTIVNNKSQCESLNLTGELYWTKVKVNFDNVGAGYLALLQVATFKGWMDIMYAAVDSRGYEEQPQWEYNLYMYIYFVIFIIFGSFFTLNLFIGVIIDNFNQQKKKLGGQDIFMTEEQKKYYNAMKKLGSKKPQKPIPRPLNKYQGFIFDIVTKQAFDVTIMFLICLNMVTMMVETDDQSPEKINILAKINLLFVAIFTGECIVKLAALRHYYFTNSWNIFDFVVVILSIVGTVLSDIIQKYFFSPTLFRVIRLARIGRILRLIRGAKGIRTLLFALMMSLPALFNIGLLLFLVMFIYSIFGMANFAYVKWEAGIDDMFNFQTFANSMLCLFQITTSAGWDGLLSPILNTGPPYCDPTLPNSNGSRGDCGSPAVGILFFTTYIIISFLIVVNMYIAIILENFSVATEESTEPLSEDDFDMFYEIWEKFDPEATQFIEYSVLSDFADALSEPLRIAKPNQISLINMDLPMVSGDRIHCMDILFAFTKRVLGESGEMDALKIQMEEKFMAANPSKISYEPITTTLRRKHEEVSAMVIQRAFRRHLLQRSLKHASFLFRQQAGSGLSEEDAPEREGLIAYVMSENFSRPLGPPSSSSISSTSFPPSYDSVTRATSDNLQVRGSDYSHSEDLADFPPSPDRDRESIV
T2 sequence (P08684 whole entry): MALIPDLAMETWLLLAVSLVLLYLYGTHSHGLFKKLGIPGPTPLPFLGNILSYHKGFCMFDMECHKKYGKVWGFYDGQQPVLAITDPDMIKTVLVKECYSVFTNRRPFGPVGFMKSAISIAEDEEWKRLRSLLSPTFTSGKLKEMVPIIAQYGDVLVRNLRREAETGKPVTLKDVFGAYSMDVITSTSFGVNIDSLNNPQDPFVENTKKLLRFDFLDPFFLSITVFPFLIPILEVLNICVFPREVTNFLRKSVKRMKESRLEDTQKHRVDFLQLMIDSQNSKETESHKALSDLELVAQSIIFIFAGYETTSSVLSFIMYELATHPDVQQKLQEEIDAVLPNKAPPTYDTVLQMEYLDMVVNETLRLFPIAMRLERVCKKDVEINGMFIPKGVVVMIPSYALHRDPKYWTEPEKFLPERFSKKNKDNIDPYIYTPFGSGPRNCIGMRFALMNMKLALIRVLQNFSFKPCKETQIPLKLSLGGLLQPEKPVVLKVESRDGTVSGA

Compound	EC50 (HIV [1])	Remaining rate [2]	FC (fold change, degree of resistance) = EC50 of the mutant strain/EC50 of the wild strain [3]	half-life [4]	clearance [4]	Potency shift (PS) in the presence of human serum protein (HIV [5])	electric charge amount increase rate (Nav 1.5 channel)	maximum current amount increase rate (Nav 1.5 channel)	Shifted IC grade (mechanism based inhibition) (CYP3A4)
CCN1C(=O)c2c(O)c(=O)c(C(=O)NCc3nccc(Cl)c3F)cn2[C@H]2CCCC[C@H]21 [Compound I-003]	3.9 nM	91.7%							
CCN1C(=O)c2c(O)c(=O)c(C(=O)NCc3cccc(Cl)c3F)cn2[C@@H]2[C@H]1CCCC2(F)F [Compound I-005]	1 nM		6.7	10.9 h	7.02 mL/h/kg	104			
CCN1C(=O)c2c(O)c(=O)c(-c3nnc(Cc4ccc(F)cc4F)s3)cn2[C@H]2CCCC[C@H]21 [Compound I-017]	4.2 nM		6.0	15.3 h	4.27 mL/h/kg		133%	95.6%	
CCN1C(=O)c2c(O)c(=O)c(-c3nnc(Cc4ccc(F)cc4F)s3)cn2[C@H]2CCC[C@H]21 [Compound I-020]	5 nM	74.6%	7.7			29			
CCN1C(=O)c2c(O)c(=O)c(-c3nnc(Cc4ccc(F)cc4F)s3)cn2[C@@H]2[C@H]1CCCC2(F)F [Compound I-022]	5.3 nM						137%	93.1%	(−) (shifted IC of 1.0 or less is graded as negative (−))
